This note sets out measurements from patent publication US9815878B2, “Use of PEDF-derived polypeptides for preventing and/or ameliorating skin aging” (MacKay Memorial Hospital, priority 2012, dated 2017).

In assay [1] the test system is MMP-13. In words: UVB-induced MMP-13 mRNA expression in primary mouse dermal fibroblasts, RT-PCR. The format is cell-based. As to conditions: for MMP-13 Expression Level (%): mRNA, Vehicle/UVB set to 100%; for effect on UVB-induced upregulation of MMP-13: cells pretreated with peptide. Here is the method:
Full-thickness skin tissue was obtained from the dorsum of C57BL/6 mouse. The subcutaneous tissue was carefully dissected from the skin and washed three times in sterile phosphate-buffered saline (PBS). The tissue was then cut into small pieces (1-2 mm^3). After being digested with 0.1% dispase at 4° C. overnight, the epidermal layers were removed, and the remaining dermal parts were further digested with 0.1% collagenase I at 37° C. for another 4 hours. The digested cells were then collected by centrifugation (400 g for 5 minutes) and resuspended in high-glucose DMEM supplemented with 10% FBS, 2 mM L-glutamine, and 1% penicillin-streptomycin antibiotic mixture. Cells were seeded onto tissue-culture plates (Falcon Labware; NJ, USA) at 1×10^3 cells/cm^2 and maintained at 37° C. with 5% CO2. After 24 hours, the medium was discarded to remove residual non-adherent cells, and cell culture was replenished with a fresh medium. For passage, near-confluent cells were harvested with 0.25% trypsin/EDTA.
The total RNA was extracted from cells using the TRIzol (Invitrogen) and treated with RNase-free DNase I (Qiagen, Santa Clarita, Calif.) to remove genomic DNA and then purified with an RNA purification kit (Dynabeads; Invitrogen). 1 μg of total RNA retrieved from primary dermal fibroblast was reverse-transcribed into cDNA by 200 units of expand Reverse-Transcriptase (Roche, Mannheim, Germany) in 20 μl of reaction buffer containing 0.25 μg of random primers and 0.8 mM dNTPs at 42° C. for 1 hour. 2 μl of the cDNA was used for the PCR reaction as templates. PCR was performed in a 30 μl volume containing 15 μl of EconoTaq® PLUS GREEN 2× Master Mix (Lucigen® Corp.), 1 μM of each primer and 2 μl of template DNA. cDNA was synthesized in an 18-22 cycle amplification reaction (denaturation, 20 s, 94° C.; annealing, 30 s, 57° C.; and polymerization, 40 s, 72° C.). The number of cycles for the primer set was chosen to be in the linear range of amplification. The sequences of specific PCR primers were mouse MMP-13 (accession number: NM_008607) sense, […] (SEQ ID NO: 12); antisense, […] (SEQ ID NO: 13); PCR product: 201 bp; and mouse glyceraldehyde 3-phosphate dehydrogenase (GAPDH; accession number: M32599) sense, […] (SEQ ID NO: 14); and anti-sense, […] (SEQ ID NO: 15); PCR product: 223 bp.). The PCR products were electrophoresed in a 2% agarose gel containing ethidium bromide and visualized by UV illumination. The intensities of the PCR products were quantified densitometrically using a FUJI LAS-3000 system and Multi Gauge Ver. 1.01 software (Fujifilm, Tokyo, Japan).
Primary mouse dermal fibroblasts in passage 2 of monolayer cultures were incubated with 1% FBS-DMEM supplemented with or without 100 nM PEDF peptide for 24 hours, and then subjected to UVB irradiation as described above. After UVB irradiation, PBS was replaced with 1% FBS-DMEM with or without PEDF peptide for further 24 hours, and then cellular total RNAs were extracted for subsequent RT-PCR analysis. The expression level of MMP-13 mRNA was normalized with the expression level in the Vehicle/UVB group (set to 100%), and quantitative results are summarized in Table 7.

In assay [2] the test system is dermal collagen. Description: Collagen content of UVB-damaged mouse skin, Masson's trichrome staining. As to conditions: 8-week UVB, then transdermal delivery for 2 weeks. It counts as in vivo, nude mice. Here is the method:
General histology was performed using hematoxylin and eosin (H&E) dye. Deparaffinized skin tissue sections were stained using Masson's Trichrome (Sigma-Aldrich, St. Louis, Mo.) according to the manufacturer's instructions; sections was examined and photographed by a Nikon Eclipse 80i light microscope (original magnification, ×400). For semi-quantitative analysis of collagen area, 10 fields from each slide were randomly selected under the light microscope, and the blue-stained area per entire area of the cross section (mm^2/mm^2) was measured using the Image-Pro Plus 4.5.1 system (Media Cybernetics).
Six-week-old female nude mice (BALB/cAnN.Cg-Foxn1nu/CrlNarl) were irradiated with ultraviolet B (UVB) on the back 5 times a week for an eight-week period using a bank of five UVB lamps (model XL-1000B, Spectrolinker™ apparatus; emission peak: 312 nm), placed about 20 cm above the backs of the animals. During the UVB exposure, the mice were allowed to move freely within the cage. […] The level of BrdU- and vimentin-double positive cells was expressed as the percentage of BrdU- and vimentin-double positive cells per total vimentin-positive cells (the BrdU/Vimentin Labeling Index). […]

Where [3] appears, read: 100 nM peptide 24 h before and 24 h after UVB 15 mJ/cm^2.

For the substance “Ac-SLGAEQRTESIIHRALYYDLISSPDIHGT-NH2 [29-mer]”, the “MMP-13 Expression Level (%)” value in assay [1] (setting [3]) was determined as 15.8 ± 1.8 %; in assay [1] (100 nM peptide, no UVB irradiation), 4.8 ± 0.63%. Besides, in assay [1], the “effect on UVB-induced upregulation of MMP-13” value (“effect” for short) was “substantially reduced”. Besides, the “collagen level in the dermis versus UVB/vehicle group (Masson's trichrome, FIG. 5)” value in assay [2] is listed as “significantly enhanced”.

For EQRTESIIHRALYYDLIS [18-mer], the “MMP-13 Expression Level (%)” value in assay [1] (setting [3]) was 103.3 ± 7.8%. Besides, the “effect” value in assay [1] is “unable to reduce the UVB-induced upregulation”.

“SLGAEQRTESIIHRALYYDL [20-mer, synthetic peptide corresponding to residues 93-112 of human PEDF]”: the “MMP-13 Expression Level (%)” value in assay [1] (setting [3]) is given as 15.8 ± 3.3 %. Further, in assay [1], the “effect” value is given as “substantially reduced”. Also, the “collagen level in the dermis versus UVB/vehicle group (Masson's trichrome, FIG. 5)” value in assay [2] is recorded as “significantly enhanced”.
